Each structure is given as a SMILES string.

The text below walks through data of patent publication US10975114B2, “Bis 2′-5′-RR-(3′F-A)(3′F-A) cyclic dinucleotide compound and uses thereof” (ADURO BIOTECH, INC., priority 2017, dated 2021).

One experiment deals with T1, REF allele hSTING (Homo sapiens, UniProt Q86WV6).
T1 construct: 6xHis-SUMO (with TEV site) (N, cleaved yes); made in house; host or cells: Rosetta2 (DE3) E. coli
The experiment can be described thus: DSF Tm shift, purified hSTING REF allele (AA140-379). The following applies: 1 mg/ml STING AA140-379, ligand 1 mM. The experiment is classed as binding. The protocol:
(§1) Cells were grown in lysogeny broth at 37° C. until a […] absorbance of 0.6 was reached. […] Cells were lysed using an S-450D sonifier (Emmerson industrial) on ice. […] Protein was aliquoted, flash frozen in liquid nitrogen and stored at −80° C. until use.
(§2) The protein is heated in the presence of a dye that binds to and fluoresces in hydrophobic environments. The protein is thermally denatured by heating resulting in increased dye binding to the unfolded protein and fluorescence. The temperature midpoint (Tm) of a proteins denaturation is established by calculating the half maximal value of the denaturation curve. The temperature midpoint of the protein in the presence of a ligand is directly related to the affinity of the ligand for the protein and therefore its ability to stabilize the protein at higher temperatures.

Experiment [1] relates to 4T1 mammary carcinoma. As to the kind of experiment: 4T1 mammary carcinoma dual-flank model, single intratumoral injection. The experiment is classed as in vivo, BALB/c mice. As to the method: To assess the ability of 2′2′-RR-(3′F-A)(3′F-A) to promote anti-tumor immunity in a murine tumor model, 6-8 week old female BALB/c mice (n=8/group) were implanted in both the left and the right flanks with 4T1 mammary carcinoma cells (2×10^5 cells in 100 μL PBS). Mice were treated with 2′2′-RR-(3′F-A)(3′F-A) at 0.1, 1, 10 and 100 μg in a total volume of 40 μL HBSS and compared to Hank's Balanced Salt Solution (HBSS) vehicle control. Compound was administered when tumors reached a volume of approximately 40-50 mm^3 on day 8 post tumor implantation (indicated by dotted line on the x-axis in tumor growth graphs). The compound was administered by a single […] injection into the center of the tumor (intratumoral, IT) using a 27 gauge needle. Tumors were measured twice weekly.

The target in another experiment is T2, HAQ allele hSTING (Homo sapiens, UniProt Q86WV6, G230A/H232R/R293Q).
T2 construct: 6xHis-SUMO (with TEV site) (N, cleaved yes); made in house; host or cells: Rosetta2 (DE3) E. coli
T2 sequence (Q86WV6 140-379 G230A/H232R/R293Q): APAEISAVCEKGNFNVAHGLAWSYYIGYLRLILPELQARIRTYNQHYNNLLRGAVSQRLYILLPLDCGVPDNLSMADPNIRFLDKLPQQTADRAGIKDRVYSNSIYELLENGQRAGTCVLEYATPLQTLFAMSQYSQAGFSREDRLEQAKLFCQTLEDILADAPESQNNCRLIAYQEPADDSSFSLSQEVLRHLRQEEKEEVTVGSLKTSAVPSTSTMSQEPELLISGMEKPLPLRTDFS
As to the kind of experiment: DSF Tm shift, purified hSTING HAQ allele (AA140-379). The experiment is classed as binding. The following applies: 1 mg/ml STING AA140-379, ligand 1 mM. The protocol:
as §1, §2

Experiment [2] has as its system 4T1 mammary carcinoma. As to the kind of experiment: AH1-specific T cells in distal 4T1 tumor (TILs), with or without anti-PD-1. The experiment is classed as in vivo, BALB/c mice. As to the method: To assess the ability of 2′2′-RR-(3′F-A)(3′F-A) to promote anti-tumor immunity in murine tumor models in combination with an antagonistic anti-PD-1 antibody, 6-8 week old female BALB/c mice (n=8/group) were implanted in both the left and the right flanks with 4T1 mammary carcinoma cells (2×10^5 cells in 100 aL PBS, day 0). Mice were treated with vehicle alone or 1 μg 2′2′-RR-(3′F-A)(3′F-A) in a total volume of 40 aL HBSS by IT injection using a 27 gauge needle when tumors reached a volume of approximately 40-50 mm^3 on day 8 post tumor implantation (indicated by dotted line on the x-axis in tumor growth graphs). Mice were given intraperitoneal (IP) injections of 200 μg control IgG or anti-PD-1 (clone RMP1-14, BioXCell) beginning on the day of 2′2′-RR-(3′F-A)(3′F-A) treatment and then continuing twice per week throughout the duration of the experiment. […] Tumors were measured twice weekly.
To directly quantify the effect of combining 2′2′-RR-(3′F-A)(3′F-A) with anti-PD-1 on tumor-specific T cells, a cohort of mice from Example 9 were euthanized on day 7 post IT injection and non-injected tumors dissociated into a single cell suspension. […] Data were acquired using a LSRFortessa X-20 cytometer with FACSDiva software (BD) and analyzed with FlowJo software (Tree Star).

The next experiment concerns the target T3, wild type hSTING (Homo sapiens, UniProt Q86WV6, H232R).
T3 construct: 6xHis-SUMO (with TEV site) (N, cleaved yes); made in house; host or cells: Rosetta2 (DE3) E. coli
As to the kind of experiment: DSF Tm shift, purified hSTING WT (AA140-379). The experiment is classed as binding. The following applies: 1 mg/ml STING AA140-379, ligand 1 mM. The protocol: as §1, §2

T1 sequence (Q86WV6 140-379): as the sequence (Q86WV6 140-379 G230A/H232R/R293Q) above, with A91G, R93H, Q154R counted along it
T3 sequence (Q86WV6 140-379 H232R): as the sequence (Q86WV6 140-379 G230A/H232R/R293Q) above, with A91G, Q154R counted along it

With `Nc1ncnc2c1ncn2[C@@H]1O[C@@H]2CO[P@@](=O)(S)O[C@@H]3[C@H](F)[C@@H](CO[P@@](=O)(S)O[C@@H]1[C@@H]2F)O[C@H]3n1cnc2c(N)ncnc21` [2′2′-RR-(3′F-A)(3′F-A), (1S,3R,6R,8R,9S,11R,14R,16R,17R,18R)-8,16-bis(6-amino-9H-purin-9-yl)-17,18-difluoro-3,11-dimercapto-2,4,7,10,12,15-hexaoxa-3,11-diphosphatricyclo[12.2.1.1^6,9]octadecane 3,11-dioxide], the “hSTING Tm Shift REF” value at REF allele hSTING is 12.5 °C. In the experiment with 4T1 mammary carcinoma [1] (10 μg single IT dose, n=8), the “cures of the distal tumor” value was found to be 37.5% and the “cures of the primary tumor” value worked out at 100%. For the same compound, the “tumor inhibition in primary (injected) and distal (non-injected) flank tumor” value in the experiment on 4T1 mammary carcinoma [1] (single IT injection 0.1, 1, 10, 100 μg, compared to HBSS) is “potent dose-dependent tumor inhibition”. The “hSTING Tm Shift HAQ” value at HAQ allele hSTING worked out at 19.7 °C. The “tumor-specific T cell response in distal tumor” value in the experiment on 4T1 mammary carcinoma [2] (1 μg IT alone, TILs day 7 post IT injection) is recorded as “measurable above background”. The “polyfunctional IFNγ+TNFα+ CD8 T cells specific for the AH1 peptide in the tumor microenvironment” value in the experiment with 4T1 mammary carcinoma [2] (1 μg IT combined with anti-PD-1, TILs of non-injected tumor, day 7 post IT injection) was “statistically significant increase”. Also, the “hSTING Tm Shift WT” value on wild type hSTING was 13.9 °C.
